In patent US20090130236A1, “ANTI-MICROBIAL AGENT AND ANTI-MICROBIAL COMPOSITION” (Hououdou Co., Ltd., priority 2002, published 2009):
Converted amounts (≈) assume the structure as drawn. Like-named read-outs stand apart in the source and are kept apart here.

How the values were obtained:
[1] = system: Staphylococcus spp. (44 Strains); assay: MIC, agar plate dilution, Test Example 22; format: cell-based
From the text: Strains Used: There were used 44 strains of Staphylococcus spp. […] Sterilized distilled water was used in the dilution of the solution.

[2] = system: clinically isolated 26 strains of P. acnes; assay: MIC, agar plate dilution, Test Example 10; format: cell-based, Propionibacterium acnes; settings: reference data, not obtained through tests simultaneously carried out
[3] = Staphylococcus, read-out: MIC50
[4] = Staphylococcus, read-out: MIC80
[5] = Cutibacterium acnes, read-out: MIC50
[6] = Cutibacterium acnes, read-out: MIC80

SMILES | MIC50 [1, 3] [µg/mL] | MIC80 [1, 4] [µg/mL] | MIC50 [2, 5] [µg/mL] | MIC80 [2, 6] [µg/mL] | MIC50 [1] [µg/mL] | MIC80 [1] [µg/mL] | MIC50 [2] [µg/mL] | MIC80 [2] [µg/mL]
CN(C)[C@@H]1C(=O)C(C(N)=O)=C(O)[C@@]2(O)C(=O)C3=C(O)c4c(O)cccc4[C@@](C)(O)[C@H]3C[C@@H]12 [TC, Tetracycline] | – | – | – | – | 0.39 (≈ 0.878 µM) | 25 (≈ 56.3 µM) | 0.19 (≈ 0.428 µM) | 0.19 (≈ 0.428 µM)
CCC[C@@H]1C[C@@H](C(=O)N[C@@H]([C@H]2O[C@H](SC)[C@H](O)[C@@H](O)[C@H]2O)[C@H](C)Cl)N(C)C1 [CLDM, Clindamycin] | – | – | – | – | 0.10 (≈ 0.235 µM) | >100 | 0.10 (≈ 0.235 µM) | 0.19 (≈ 0.447 µM)
CN(C)c1ccc(O)c2c1C[C@H]1C[C@H]3[C@H](N(C)C)C(O)=C(C(N)=O)C(=O)[C@@]3(O)C(O)=C1C2=O [MINO, Minocycline] | 0.1 (≈ 0.219 µM) | 0.1 (≈ 0.219 µM) | 0.05 (≈ 0.109 µM) | 0.1 (≈ 0.219 µM) | – | – | – | –

The next lines start with results.

MIC50 [1, 3] [µg/mL] | MIC80 [1, 4] [µg/mL] | MIC50 [2, 5] [µg/mL] | MIC80 [2, 6] [µg/mL] | SMILES | MIC50 [1] [µg/mL] | MIC80 [1] [µg/mL] | MIC50 [2] [µg/mL] | MIC80 [2] [µg/mL]
0.05 (≈ 0.139 µM) | 0.78 (≈ 2.16 µM) | 0.19 (≈ 0.527 µM) | 0.19 (≈ 0.527 µM) | CC1CCc2c(N3CCC(O)CC3)c(F)cc3c(=O)c(C(=O)O)cn1c23 (centres unmarked) [NDFX, Nadifloxacin] | – | – | – | –
0.39 (≈ 1.08 µM) | 0.78 (≈ 2.16 µM) | 0.39 (≈ 1.08 µM) | 0.39 (≈ 1.08 µM) | CC1COc2c(N3CCN(C)CC3)c(F)cc3c(=O)c(C(=O)O)cn1c23 (centres unmarked) [OFLX, Ofloxacin] | – | – | – | –
